What follows are compounds tested against T1, Dimer of Gag-Pol polyprotein [489-587] (Human immunodeficiency virus 1, UniProt P12497) (assay: Protease Inhibition Assay). Conditions: not given.
T1 construct: 489-587
Description: For determination of IC50 values, HIV-1 protease was added to assay buffer containing inhibitor and the substrate (H-His-Lys-Ala-Arg-Val-Leu- (p-NO2) Phe-Glu-Ala-norleucine-Ser-NH2). The Leu- (p-NO2) Phe bond of the substrate was cleaved by the enzyme, and the substrate and products were separated by reversed-phase HPLC. Absorbance was measured at 220 nm, peak areas were determined, and percentage conversion to product was calculated.
Compound CC(C)c1ccccc1SC1C(=O)CC(CCc2ccccc2)(c2ccccc2)OC1=O (configuration not stated) [4-hydroxy-6-phenyl-6-(2-phenylethyl)-3-{[2-(propan-2-yl)phenyl]sulfanyl}-5,6-dihydro-2H-pyran-2-one] has an IC50 of 14 nM.
O=C1CC2(CCc3ccccc32)OC(=O)C1SCc1ccccc1 (configuration not stated) [5'-(benzylsulfanyl)-4'-hydroxy-3',6',2,3-tetrahydrospiro[indene-1,2'-pyran]-6'-one] was tested, and the IC50 was 11800 nM.
With CN(CC1(c2ccccc2)CC(=O)C(SCCc2ccccc2)C(=O)O1)c1ccccc1 (configuration not stated) [5,6-Dihydro-4-hydroxy-6-[(methylphenylamino)methyl]-6-phenyl-3-[(2-phenylethyl)thio]-2H-pyran-2-one] the IC50 was 2280 nM.
Work on O=C1CC(COc2ccccc2)(c2ccccc2)OC(=O)C1SCc1ccccc1 (configuration not stated) [5,6-Dihydro-4-hydroxy-6-phenoxymethyl-6-phenyl-3-[(phenylmethyl)thio]-2H-pyran-2-one] yielded an IC50 of 172 nM.
In the case of O=C1CC(c2ccccc2)(c2ccncc2)OC(=O)C1SCCc1ccccc1 (configuration not stated) [5,6-Dihydro-4-hydroxy-6-phenyl-3-[(2-phenylethyl)thio]-6-pyridin-4-yl-2H-pyran-2-one], the IC50 is reported as 790 nM.
CC(C)c1ccc(C(C)C)c(SC2C(=O)CC(CCc3ccccc3)(c3ccccc3)OC2=O)c1 (configuration not stated) [5,6-Dihydro-4-hydroxy-6-phenyl-6-(2-phenylethyl)-3-[(2,5-diisopropylphenyl)sulfanyl]-2H-pyran-2-one] gave an IC50 of 14 nM.
Work on NC(=O)CCCCC1(c2ccccc2)CC(=O)C(SCCc2ccccc2)C(=O)O1 (configuration not stated) [5-{4-hydroxy-6-oxo-2-phenyl-5-[(2-phenylethyl)sulfanyl]-3,6-dihydro-2H-pyran-2-yl}pentanamide] yielded an IC50 of 338 nM.
In the case of Cc1ccc(C(C)C)c(SC2C(=O)C[C@](CCc3ccccc3)(c3ccccc3)OC2=O)c1 (stereo partly drawn) [(6R)-4-hydroxy-3-{[5-methyl-2-(propan-2-yl)phenyl]sulfanyl}-6-phenyl-6-(2-phenylethyl)-5,6-dihydro-2H-pyran-2-one], the IC50 is reported as 130 nM.
Work on Cc1ccc(C(C)C)c(SC2C(=O)C[C@@](CCc3ccccc3)(c3ccccc3)OC2=O)c1 (stereo partly drawn) [(6S)-4-hydroxy-3-{[5-methyl-2-(propan-2-yl)phenyl]sulfanyl}-6-phenyl-6-(2-phenylethyl)-5,6-dihydro-2H-pyran-2-one] yielded an IC50 of 6 nM.

Same assay, conditions: pH 4.7; 37 °C
Work on O=C(O)CCCC1(c2ccccc2)CC(=O)C(SCCc2ccccc2)C(=O)O1 (configuration not stated) [4-{4-hydroxy-6-oxo-2-phenyl-5-[(2-phenylethyl)sulfanyl]-3,6-dihydro-2H-pyran-2-yl}butanoic acid] yielded an IC50 of 270 nM.
Work on O=C1CC(c2ccccc2)(c2ccccc2)OC(=O)C1Sc1ccccc1 (configuration not stated) [5,6-Dihydro-4-hydroxy-6,6-diphenyl-3-(phenylthio)-2H-pyran-2-one] yielded an IC50 of 110 nM.
O=C1CC(c2ccccc2)(c2ccccc2)OC(=O)C1SCCc1ccccc1 (configuration not stated) [5,6-Dihydro-4-hydroxy-6,6-diphenyl-3-[(2-phenylethyl)thio]-2H-pyran-2-one] gave an IC50 of 152 nM.
For O=C1CC(c2ccccc2)(c2ccccc2)OC(=O)C1SCc1ccccc1 (configuration not stated) [5,6-Dihydro-4-hydroxy-6,6-diphenyl-3-[(phenylmethyl)thio]-2H-pyran-2-one], the IC50 was 262 nM.
CC(C)CC1(c2ccccc2)CC(=O)C(SCCc2ccccc2)C(=O)O1 (configuration not stated) [5,6-Dihydro-4-hydroxy-6-(2-methylpropyl)-6-phenyl-3-[(2-phenylethyl)thio]-2H-pyran-2-one] was tested, and the IC50 was 1200 nM.
Compound CC(C)CCC1(c2ccccc2)CC(=O)C(Sc2ccccc2)C(=O)O1 (configuration not stated) [5,6-Dihydro-4-hydroxy-6-(3-methylbutyl)-6-phenyl-3-(phenylthio)-2H-pyran-2-one] has an IC50 of 1400 nM.
With O=C1CC(c2ccccc2)OC(=O)C1SCCc1ccccc1 (configuration not stated) [5,6-Dihydro-4-hydroxy-6-phenyl-3-[(2-phenylethyl)thio]-2H-pyran-2-one] the IC50 was 2100 nM.
For CCCC1(c2ccccc2)CC(=O)C(SCCc2ccccc2)C(=O)O1 (configuration not stated) [5,6-Dihydro-4-hydroxy-6-phenyl-3-[(2-phenylethyl)thio]-6-propyl-2H-pyran-2-one], the IC50 was 5100 nM.
O=C1CC(c2ccccc2)OC(=O)C1SCc1ccccc1 (configuration not stated) [5,6-Dihydro-4-hydroxy-6-phenyl-3-[(phenylmethyl)thio]-2H-pyran-2-one] showed an IC50 of 8900 nM.
Work on CCCC1(c2ccccc2)CC(=O)C(SCc2ccccc2)C(=O)O1 (configuration not stated) [5,6-Dihydro-4-hydroxy-6-phenyl-3-[(phenylmethyl)thio]-6-propyl-2H-pyran-2-one] yielded an IC50 of 290 nM.
In the case of O=C1CC(CCc2ccccc2)(c2ccccc2)OC(=O)C1Sc1ccccc1 (configuration not stated) [5,6-Dihydro-4-hydroxy-6-phenyl-6-(2-phenylethyl)-3-(phenylthio)-2H-pyran-2-one], the IC50 is reported as 130 nM.
For O=C1CC(CCc2ccccc2)(c2ccccc2)OC(=O)C1SCCc1ccccc1 (configuration not stated) [5,6-Dihydro-4-hydroxy-6-phenyl-6-(2-phenylethyl)-3-[(2-phenylethyl)thio]-2H-pyran-2-one], the IC50 was 51 nM.
CCCCCCC1(c2ccccc2)CC(=O)C(SCCc2ccccc2)C(=O)O1 (configuration not stated) [5,6-Dihydro-6-hexyl-4-hydroxy-6-phenyl-3-[(2-phenylethyl)thio]-2H-pyran-2-one] gave an IC50 of 112 nM.
O=C(O)CCCCC1(c2ccccc2)CC(=O)C(SCCc2ccccc2)C(=O)O1 (configuration not stated) [5-{4-hydroxy-6-oxo-2-phenyl-5-[(2-phenylethyl)sulfanyl]-3,6-dihydro-2H-pyran-2-yl}pentanoic acid] gave an IC50 of 5 nM.
For O=C1CC(CC2CCCCC2)(c2ccccc2)OC(=O)C1SCc1ccccc1 (configuration not stated) [6-(Cyclohexylmethyl)-5,6-dihydro-4-hydroxy-6-phenyl-3-[(phenylmethyl)thio]-2H-pyran-2-one], the IC50 was 137 nM.
With O=C1CC(CC2CCCC2)(c2ccccc2)OC(=O)C1SCc1ccccc1 (configuration not stated) [6-(Cyclopentylmethyl)-5,6-dihydro-4-hydroxy-6-phenyl-3-[(phenylmethyl)thio]-2H-pyran-2-one] the IC50 was 88 nM.
O=C1CC(CC2CCCC2)(c2ccccc2)OC(=O)C1SCCc1ccccc1 (configuration not stated) [6-(cyclopentylmethyl)-4-hydroxy-6-phenyl-3-[(2-phenylethyl)sulfanyl]-5,6-dihydro-2H-pyran-2-one] was tested, and the IC50 was 510 nM.
For CCCCC1(c2ccccc2)CC(=O)C(SCCc2ccccc2)C(=O)O1 (configuration not stated) [6-Butyl-5,6-dihydro-4-hydroxy-6-phenyl-3-[(2-phenylethyl)thio]-2H-pyran-2-one], the IC50 was 400 nM.
